Reference: ChEMBL document CHEMBL1123891, “Antimalarial activity of 2-(substituted amino)-4,6-bis(trichloromethyl)-1,3,5-triazines and N-(chlorophenyl)-N'-[4-(substituted amino)-6-(trichloromethyl)-1,3,5-triazin-2-yl]guanidines” (1987)
Values joined by “and” are separate entries in the source; they are usually repeats but may differ in a detail not shown here. Equal values may be shown once.

Experiments:
[1] = system: Gallus gallus; test: Mean survival time was determined against Plasmodium gallinaceum treated chicks after (subcutaneously) administration of 100 mg/kg; assay type: functional; conditions: route subcutaneous
[2] = system: Mus musculus; test: (§1) Mean survival time was determined against Plasmodium berghei treated mice (Mus musculus) after (subcutaneously) administration of 40 mg/kg; assay type: functional; conditions: route subcutaneous
[3] = species on record: Mus musculus; test: Dose required for 90% suppression of the parasitaemia in Plasmodium berghei treated mice (Mus musculus) relative to control was determined; assay type: functional
[4] = system: Mus musculus; test: Mean survival time was determined against Plasmodium berghei treated mice (Mus musculus) after (subcutaneous) administration of 640 mg/kg; assay type: functional; set-up: unit not given beside the values
[5] = system: Mus musculus; test: Mean survival time was determined against Plasmodium berghei treated mice (Mus musculus) after (subcutaneously) administration of 160 mg/kg; assay type: functional; set-up: unit not given beside the values; conditions: route subcutaneous
[6] = system: Mus musculus; test: Mean survival time was determined against Plasmodium berghei treated mice (Mus musculus) after (subcutaneous) administration of 160 mg/kg; assay type: functional; set-up: unit not given beside the values
[7] = system: Mus musculus; test: (§2) Mean survival time was determined against Plasmodium berghei treated mice (Mus musculus) after (subcutaneously) administration of 20 mg/kg; assay type: functional; set-up: unit not given beside the values; conditions: route subcutaneous
[8] = system: Gallus gallus; test: Mean survival time was determined against Plasmodium gallinaceum treated chicks after (subcutaneous) administration of 120 mg/kg; assay type: functional
[9] = system: Mus musculus; test: (§3) Mean survival time was determined against Plasmodium berghei treated mice (Mus musculus) after (subcutaneously) administration of 80 mg/kg; assay type: functional; set-up: unit not given beside the values; conditions: route subcutaneous
[10] = system: Mus musculus; test: as §1; assay type: functional; set-up: unit not given beside the values; conditions: route subcutaneous
[11] = system: Mus musculus; test: Mean survival time was determined against Plasmodium berghei treated mice (Mus musculus) after (subcutaneous) administration of 320 mg/kg; assay type: functional
[12] = system: Mus musculus; test: as §3; assay type: functional; conditions: route subcutaneous
[13] = system: Gallus gallus; test: Mean survival time was determined against Plasmodium gallinaceum treated chicks after (subcutaneously) administration of 60 mg/kg; assay type: functional; conditions: route subcutaneous
[14] = system: Mus musculus; test: (§4) Mean survival time was determined against Plasmodium berghei treated mice (Mus musculus) after (subcutaneously) administration of 320 mg/kg; assay type: functional; set-up: unit not given beside the values; conditions: route subcutaneous
[15] = system: Mus musculus; test: as §2; assay type: functional; conditions: route subcutaneous
[16] = system: Gallus gallus; test: Mean survival time was determined against Plasmodium gallinaceum treated chicks after (subcutaneously) administration of 120 mg/kg; assay type: functional; conditions: route subcutaneous
[17] = system: Gallus gallus; test: Mean survival time was determined against Plasmodium gallinaceum treated chicks after (subcutaneously) administration of 240 mg/kg; assay type: functional; conditions: route subcutaneous
[18] = system: Gallus gallus; test: Mean survival time was determined against Plasmodium gallinaceum treated chicks after (subcutaneous) administration of 240 mg/kg; assay type: functional
[19] = system: Mus musculus; test: as §4; assay type: functional; conditions: route subcutaneous
[20] = system: Mus musculus; test: Mean survival time was determined against Plasmodium berghei treated mice (Mus musculus) after (subcutaneously) administration of 640 mg/kg; assay type: functional; conditions: route subcutaneous
[21] = system: Mus musculus; test: Mean survival time was determined against Plasmodium berghei treated mice (Mus musculus) after (subcutaneous) administration of 20 mg/kg

Structure (SMILES) | Delta MST ([2]; 40 mg/kg) | SD90 [3] [mg/kg] | Delta MST ([5]; 160 mg/kg) | Delta MST ([6]; 160 mg/kg) | Delta MST [7] | Delta MST [9] | Delta MST [4] | Delta MST [10] | Delta MST [11] | Delta MST [12] | Delta MST [14] | Delta MST [5] | Delta MST [15] | Delta MST [17] | also measured
CN(C)CCCNc1nc(/N=C(\N)Nc2ccc(Cl)c(Cl)c2)nc(C(Cl)(Cl)Cl)n1 | 1.3 and 1.6 | 100 | 12.3 and 12.6 |  |  |  |  |  |  |  |  |  |  |  | Delta MST [1]: 0.2; Delta MST ([4]; 640 mg/kg): 15.5 and 14.9
N=C(Nc1ccc(Cl)cc1)Nc1nc(NCCCN2CCCCC2)nc(C(Cl)(Cl)Cl)n1 |  | 208 |  | 3.1 and 3.9 | 0.3 | 2.7 | 7.9 and 8.1 | 1.7 and 1.5 | 5.5 |  |  |  |  |  | Delta MST [8]: 9.1
ClC(Cl)(Cl)c1nc(NCCCCCN2CCCC2)nc(C(Cl)(Cl)Cl)n1 | 0.4 and 0.5 | 34 |  |  |  |  |  |  |  | 0.4 | 8.6 | 2.3 | 0 |  | Delta MST [6]: 3; Delta MST [13]: 1.2; Delta MST [16]: 4.6
N=C(Nc1ccc(Cl)cc1)Nc1nc(NCCCCCN2CCCC2)nc(C(Cl)(Cl)Cl)n1 |  | 145 |  | 3.8 and 4.2 | 0.6 | 2.2 | 7.2 and 7 | 1 and 1.2 | 4 |  |  |  |  |  | Delta MST [8]: 0.7
CCN1CCCC(Nc2nc(/N=C(\N)Nc3ccc(Cl)cc3)nc(C(Cl)(Cl)Cl)n2)C1 (configuration not stated) | 0.7 and 1.1 | 97 | 4.7 and 2.3 |  |  |  |  |  |  | 4.1 | 5.3 |  | 0.3 |  | Delta MST ([4]; 640 mg/kg): 10.3 and 9.9
CCN1CCCC(Nc2nc(C(Cl)(Cl)Cl)nc(C(Cl)(Cl)Cl)n2)C1 (configuration not stated) |  | 91 |  |  |  |  |  |  |  |  |  | 2.8 |  | 1.6 | Delta MST [2]: 0.2
N=C(Nc1ccc(Cl)cc1)Nc1nc(NCCCN2CCCCCC2)nc(C(Cl)(Cl)Cl)n1 |  | 240 |  | 2.7 and 1.5 | 0.7 | 1.7 | 7.5 and 4.7 | 1.1 and 0.7 | 4.5 |  |  |  |  |  | Delta MST [1]: 18.7; Delta MST [18]: 7.2
N=C(Nc1ccc(Cl)cc1)Nc1nc(NCCCCN2CCCC2)nc(C(Cl)(Cl)Cl)n1 |  | 108 |  | 3.8 and 4.8 | 0.2 | 2.2 | 5.8 and 5.3 | 0.4 and 1 | 4.8 |  |  |  |  |  | 
ClC(Cl)(Cl)c1nc(NCCCCN2CCCC2)nc(C(Cl)(Cl)Cl)n1 | 0.2 and 0.3 | 80 |  |  |  |  |  |  |  | 0.4 | 4.2 | 2.8 | 0.2 |  | Delta MST [6]: 2.1; Delta MST [13]: 0.1
ClC(Cl)(Cl)c1nc(NCCCN2CCCC2)nc(C(Cl)(Cl)Cl)n1 |  | 86 |  |  |  |  | 3.8 |  |  | 0.2 | 1.6 | 1 | 0 | 0.3 | Delta MST [2]: 0
N=C(Nc1ccc(Cl)cc1)Nc1nc(NCCCN2CCCC2)nc(C(Cl)(Cl)Cl)n1 |  | 235 | 3.7 and 2.3 |  |  |  |  |  |  | 1.9 |  |  | 0.5 | 14.4 | Delta MST [2]: 0.5; Delta MST [19]: 7.5; Delta MST [20]: 10.1 and 9.9; Delta MST [16]: 11.7
CN(C)CCCNc1nc(/N=C(\N)Nc2ccc(Cl)cc2)nc(C(Cl)(Cl)Cl)n1 |  |  |  | 5.4 and 6.5 |  |  |  | 4.2 and 4.6 |  |  |  |  |  |  | 
CN(C)CCCNc1nc(C(Cl)(Cl)Cl)nc(C(Cl)(Cl)Cl)n1 | 2 and 2.1 | 125 | 4 and 4.7 |  |  |  |  |  |  | 2.2 | 6.8 |  |  | 0.3 | Delta MST [21]: 1.2; Delta MST ([4]; 640 mg/kg): 16.3 and 17.7
